Laboratory results taken from publication PMC10754118, “Lipophilic Nucleoside Triphosphate Prodrugs of Anti‐HIV Active Nucleoside Analogs as Potential Antiviral Compounds” (Advanced Science, 2023).
Where two headings read alike, the source gives them in different places.

Assays:
HIV‐2 [ROD] = test: Anti-HIV activity, HIV-2 in wild-type CEM/0 cells; type: cell-based; conditions: Human immunodeficiency virus 2, CCRF-CEM, read-out: Antiviral activity CEM/0 HIV‐2 [ROD] EC50
Procedure: (§1) Part 9. Anti-HIV activity assay.
(§2) The produce was used as previously reported. 5 Inhibition of HIV-1(IIIB)- and HIV-2(ROD)-induced cytopathogenicity in wild-type CEM/0 and thymidine kinase-deficient CEM/TK– cell cultures was measured in […]
(§3) containing appropriate dilutions of the test compounds. After 4−5 days of incubation at 37 °C in a CO2-controlled humidified atmosphere, CEM giant (syncytium) cell formation was examined microscopically. The […]
(§4) giant cell formation by 50%.
(§5) Part 10. Primer-extension assays. […]

pig liver esterase (PLE) = test: Hydrolysis with pig liver esterase (PLE); type: in vitro ADME; conditions: pig liver esterase (PLE) in PBS, PLE in PBS pH 7.3, 37 °C, read-out: PLE t 1/2 (converted)
Excerpt: Next, TriPPPro‐compounds 10 and 20 were exposed to PLE in PBS (pH 7.3) and the half‐lives of TriPPPro‐compounds 10 and 20 are listed in Table 1. […] In contrast, the cleavage of the AB (C4) masking group in TriPPPro‐compounds 10by–hy and 10bz–hz was triggered by ester hydrolysis and yielded the corresponding γ‐alkylated nucleoside triphosphate derivatives 20 (Figure 3B,D) and 21 (Figures S17 and S18, Supporting Information), respectively. […] Moreover, a very small amount of NDPs was observed, probably due to a reaction involving a nucleophilic reaction at the γ‐phosphate or γ‐phosphonate moiety (pathways d and f, Scheme 5). […]
(§6) Part 4. Chemical Hydrolysis of TriPPPro-compounds 10 and 20.
Second prepare 1.9 mM hydrolysis
Part 5. Hydrolysis of TriPPPro-compounds 10 and 20 with PLE .
Second, 125 µL DMSO and 833 µL
62.5 µL of PLE solution in PBS (100
mixture was stored in the freezer (- 30 °C).
by analytical HPLC (HPLC Method).
similar to that for the chemical hydrolysis studies. […]
(§7) Then, aliquots of 50 µL human

in vitro [1] = conditions: human
Procedure: The hydrolysis properties of TriPPPro‐compounds 10 and 20 were evaluated in phosphate buffer saline (PBS, pH 7.3), pig liver esterase (PLE) or CEM/0 cell extracts. In both cases, hydrolysis products were analyzed by means of analytical RP18‐HPLC and the hydrolysis half‐lives (Table 1 , t1/2 ) of TriPPPro‐compounds 10 and 20 were calculated after complete consumption of the starting materials.
The hydrolysis of TriPPPro‐compounds 10 and 20 was carried out with CEM/0 cell extracts as well. […]
Part 6. Enzyme-Catalyzed Hydrolysis of TriPPPro-compounds 10 and 20 in CEM Cell […]
First prepare 3.0 mM hydrolysis solutions of Tri PPPro-compounds 10 and 20 in DMSO and H2O: 21 µL stock solution (50 mM in DMSO) and 154 µL DMSO, and 175 µL Milli-Q water. Three-twelve different samples (20 µL 3.0 mM hydrolysis solutions) were prepared in 2 mL Eppendorf® vials. Then, aliquots of 50 µL human CEM cell extracts were added to these samples and the reaction was started. The samples were incubated at 37 °C in a thermomixer for different time periods. The reaction was stopped by addition of 150 µL MeOH and kept on ice for 5 min. After centrifugation at 14,000 rpm for 12 min, the supernatants were filtered (Chromafil RC-20/15 MS, 0.2 μm) and stored in liquid nitrogen. When testing, aliquots of 60 µL (injection volume) were analyzed by analytical HPLC (HPLC Method). The calculation of t1/2 was obtained using Origin again.
Part 7. Hydrolysis of TriPPPro-compounds 10 and 20 in human plasma.
µL 3.0 mM hydrolysis solutions) were prepared in 2 mL Eppendorf® vials.

[2] = Chemical hydrolysis in phosphate buffer saline (PBS, pH 7.3); type: physicochemical; conditions: PBS pH 7.3, 37 °C, read-out: PBS pH 7.3 t 1/2 (converted)
Procedure: as §6
Second prepare 1.9 mM hydrolysis […]
as §7

HIV‐1 [HE] = test: Anti-HIV activity, HIV-1 in wild-type CEM/0 cells; type: cell-based; conditions: Human immunodeficiency virus 1, CCRF-CEM, read-out: Antiviral activity CEM/0 HIV‐1 [HE] EC50
in vitro [3] = conditions: human, CEM/0 cells (wild-type CD4+ T-cells)
Procedure: All TriPPPro‐compounds 10 and 20, as well as their parent nucleosides and the corresponding NTPs, were evaluated for their antiviral activity (expressed as EC50 values) against HIV‐1 (wild‐type CEM/0 cells) and HIV‐2 (wild‐type CEM/0 cells and thymidine kinase‐deficient (CEM/TK^−) cells) with concomitant determination of cytotoxicity in the same cell line (Table 3 ).

HIV‐2 [ROD)] = test: Anti-HIV activity, HIV-2 in thymidine kinase-deficient CEM/TK^− cells; type: cell-based
Procedure: as §1, §2, §3, §4, §5

[4] = wild-type CEM/0 cells, mean ±SD n = 2–3
[5] = Human immunodeficiency virus 2, CEM-TK(-), thymidine kinase-deficient CEM/TK^− cells, mean ±SD n = 2–3; read-out: Antiviral activity CEM/TK^− HIV‐2 [ROD)] EC50

| Structure (SMILES) | EC50 (HIV‐2 [ROD]; [4]) [µM] | half-life at 0.45 mM (pig liver esterase (PLE)) [h] | half-life at 0.86 mM (in vitro [1]) [h] | half-life at 1.9 mM [2] [days] | EC50 (HIV‐1 [HE]; [4]) [µM] | EC50 (HIV‐2 [ROD)]; [5]) [µM] | CC50 (in vitro [3]) [µM] | EC50 (HIV‐2 [ROD]) [µM] | EC50 (HIV‐1 [HE]) [µM] | EC50 (HIV‐2 [ROD)]; Human immunodeficiency virus 2, CEM-TK(-), read-out: Antiviral activity CEM/TK^− HIV‐2 [ROD)] EC50) [µM] |
| --- | --- | --- | --- | --- | --- | --- | --- | --- | --- | --- |
| CCCCCCCCCCCCCCCCCCP(=O)(OCCCC)OP(=O)(O)OP(=O)(O)OC[C@H]1O[C@@H](n2cc(C)c(=O)[nH]c2=O)C[C@@H]1N=[N+]=[N-] (some centres unmarked) [10bx] | – | > 150 | > 20 | > 62.5 | – | – | > 100 | 0.031 ± 0.005 | 0.12 ± 0.088 | 1.19 ± 0.79 |
| CCCCCCCCCCCCCCCCCCOP(=O)(OCCCC)OP(=O)(O)OP(=O)(O)OC[C@@H]1O[C@H](n2cc(F)c(N)nc2=O)CS1 (some centres unmarked) [10cv, γ‐(C4;C18)‐FTCTP] | 0.074 ± 0.027 | > 150 | > 10 | > 83.3 | 0.039 ± 0.035 | 0.0032 | 51.2 ± 7.7 | – | – | – |
| CCCCCCCCCCCCCCCCCCOP(=O)(OCCCC)OP(=O)(O)OP(=O)(O)OC[C@H]1O[C@@H](n2cc(Cl)c(=O)[nH]c2=O)C[C@@H]1F (some centres unmarked) [10dv] | 4.81 ± 4.61 | > 150 | > 20 | > 83.3 | 2.28 ± 0.68 | > 20 | 50.1 ± 10.2 | – | – | – |
| CCCCCCCCCCCCCCCCCCOP(=O)(OCc1ccc(OC(=O)CCCC)cc1)OP(=O)(O)OP(=O)(O)OC[C@H]1O[C@@H](n2cc(Cl)c(=O)[nH]c2=O)C[C@@H]1F (some centres unmarked) [10dy] | 1.95 ± 0.86 | 0.19 | 2.9 | 18.5 | 7.32 ± 2.28 | 2.53 ± 1.38 | 52.1 | – | – | – |

Further lines, with some results ahead:

| EC50 (HIV‐2 [ROD]; [4]) [µM] | half-life at 0.45 mM (pig liver esterase (PLE)) [h] | half-life at 0.86 mM (in vitro [1]) [h] | half-life at 1.9 mM [2] [days] | EC50 (HIV‐1 [HE]; [4]) [µM] | EC50 (HIV‐2 [ROD)]; [5]) [µM] | Structure (SMILES) | CC50 (in vitro [3]) [µM] | EC50 (HIV‐2 [ROD]) [µM] | EC50 (HIV‐1 [HE]) [µM] | EC50 (HIV‐2 [ROD)]; Human immunodeficiency virus 2, CEM-TK(-), read-out: Antiviral activity CEM/TK^− HIV‐2 [ROD)] EC50) [µM] |
| --- | --- | --- | --- | --- | --- | --- | --- | --- | --- | --- |
| > 10 | > 150 | > 20 | > 83.3 | > 10 | 15.7 ± 0.98 | CCCCCCCCCCCCCCCCCCOP(=O)(O)OP(=O)(O)OP(=O)(O)OC[C@H]1O[C@@H](n2cc(/C=C/Br)c(=O)[nH]c2=O)C[C@@H]1O [20g] | > 100 | – | – | – |
| 0.22 ± 0.02 | > 150 | > 30 | > 83.3 | 0.35 ± 0.25 | 0.051 ± 0.069 | CCCCCCCCCCCCCCCCCCOP(=O)(O)OP(=O)(O)OP(=O)(O)OC[C@@H]1O[C@H](n2cc(F)c(N)nc2=O)CS1 [20c, γ‐C18‐FTCTP] | 63.4 ± 13.7 | – | – | – |
| 2.24 ± 0.65 | > 150 | > 20 | > 83.3 | 3.14 ± 2.93 | 62.1 | CCCCCCCCCCCCCCCCCCOP(=O)(O)OP(=O)(O)OP(=O)(O)OC[C@H]1O[C@@H](n2cc(Cl)c(=O)[nH]c2=O)C[C@@H]1F [20d] | > 100 | – | – | – |
| 0.01 ± 0.001 | > 150 | > 20 | > 83.3 | 0.019 ± 0.019 | 1.27 ± 0.54 | CCCCCCCCCCCCCCCCCCOP(=O)(O)OP(=O)(O)OP(=O)(O)OC[C@H]1O[C@@H](n2cc(C)c(=O)[nH]c2=O)C[C@@H]1F [20f, γ‐C18‐FLTTP] | > 100 | – | – | – |
